Laboratory results published in patent US20190192697A1, “CHEMICAL PROBES OF LYSYL OXIDASK-LIKE 2 AND USES THEREOF” (PHARMAKEA, INC., priority 2016, published 2019).
Structures can show the parent of a compound that is named as a salt.

Target: T1, LOXL2 (Homo sapiens, UniProt Q9Y4K0)
T1 sequence (Q9Y4K0 26-774): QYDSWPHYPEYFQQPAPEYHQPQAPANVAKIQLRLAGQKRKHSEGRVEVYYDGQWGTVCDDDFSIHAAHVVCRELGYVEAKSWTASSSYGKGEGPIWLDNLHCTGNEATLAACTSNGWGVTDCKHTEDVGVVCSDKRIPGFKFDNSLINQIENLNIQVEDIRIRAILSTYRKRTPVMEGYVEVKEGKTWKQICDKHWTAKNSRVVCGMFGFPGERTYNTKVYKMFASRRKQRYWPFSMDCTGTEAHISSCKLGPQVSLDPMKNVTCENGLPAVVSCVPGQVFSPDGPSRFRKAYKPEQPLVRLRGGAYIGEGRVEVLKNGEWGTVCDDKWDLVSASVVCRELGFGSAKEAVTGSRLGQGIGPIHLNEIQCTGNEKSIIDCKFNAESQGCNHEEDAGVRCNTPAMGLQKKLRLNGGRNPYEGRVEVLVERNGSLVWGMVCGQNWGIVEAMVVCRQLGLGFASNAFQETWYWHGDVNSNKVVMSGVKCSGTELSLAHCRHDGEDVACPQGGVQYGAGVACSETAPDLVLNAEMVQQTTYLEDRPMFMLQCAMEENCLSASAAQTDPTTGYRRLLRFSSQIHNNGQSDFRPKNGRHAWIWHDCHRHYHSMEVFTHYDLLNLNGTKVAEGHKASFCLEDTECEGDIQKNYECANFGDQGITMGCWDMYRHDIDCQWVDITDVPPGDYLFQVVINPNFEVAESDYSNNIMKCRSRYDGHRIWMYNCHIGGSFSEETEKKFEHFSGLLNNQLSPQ
Test: Human LOXL2 amine oxidase activity assay (Amplex Red)
Format: biochemical
Set-up: expressed in transfected cells; host or cells: CHO cells stably expressing human LOXL2; 10-20x concentrated conditioned media
Conditions: concentrated conditioned media from CHO cells expressing human LOXL2; 2 h at 37° C. pre-incubation
Method: LOXL2 amine oxidase activity is evaluated by measuring Amplex Red fluorescence using 10-20× concentrated conditioned media from CHO cells stably expressing human LOXL2. To assay for amine oxidase activity, 10 μL of the concentrated conditioned media is incubated with 2 μL of test compound in DMSO and 73 μL Assay Buffer (50 mM Borate Buffer, pH8) for 2 h at 37° C. After the 2 h incubation, 5 μL of 10 mM 1,5-diaminopentane (DAP) diluted in Assay Buffer and 10 μL of Amplex Red Mix (8.5 μL Assay Buffer+0.5 μL of 10 mM Amplex Red+1 μL of 500 U/mL Horseradish Peroxidase) are added and the plate mixed and immediately placed on the FlexStaion for fluorescence measurements. Fluorescence is read in kinetic mode every 2 min for 1 hour at excitation=544 nm and emission=590 nm. The amine oxidase activity is calculated from the slope of the linear portion of the curve.
`NCc1cc(Oc2cccc(C(=O)NCCCCCNC(=O)CCCC[C@@H]3SC[C@@H]4NC(=O)N[C@@H]43)c2)nc(C(F)(F)F)c1` [Compound 1-1, 3-((4-(Aminomethyl)-6-(trifluoromethyl)pyridin-2-yl)oxy)-N-(5-(5-((3aS,4S,6aR)-2-oxohexahydro-1H-thieno[3,4-d]imidazol-4-yl)pentanamido)pentyl)benzamide hydrochloride] gave an IC50 of under 300 nM. For `Cl.NCc1cc(Oc2cccc(C(=O)NCCOCCOCCOCCOCCOCCOCCOCCOCCOCCOCCOCCNC(=O)CCCC[C@@H]3SC[C@@H]4NC(=O)N[C@@H]43)c2)nc(C(F)(F)F)c1` [Compound 1-2, 3-((4-(Aminomethyl)-6-(trifluoromethyl)pyridin-2-yl)oxy)-N-(37-oxo-41-((3aS,4S,6aR)-2-oxohexahydro-1H-thieno[3,4-d]imidazol-4-yl)-3,6,9,12,15,18,21,24,27,30,33-undecaoxa-36-azahentetracontyl)benzamide hydrochloride], the IC50 was under 300 nM. In the case of `CN1/C(=C/C=C/C2=[N+](CCCCCC(=O)NCCCn3cc(CCCCNC(=O)c4cccc(Oc5cc(CN)cc(C(F)(F)F)n5)c4)nn3)c3ccccc3C2(C)C)C(C)(C)c2ccccc21` [Compound 1-3, 1-(6-((3-(4-(4-(3-((4-(Aminomethyl)-6-(trifluoromethyl)pyridin-2-yl)oxy)benzamido)butyl)-1H-1,2,3-triazol-1-yl)propyl)amino)-6-oxohexyl)-3,3-dimethyl-2-((1E,3E)-3-(1,3,3-trimethylindolin-2-ylidene)prop-1-en-1-yl)-3H-indol-1-ium chloride hydrochloride], the IC50 is reported as under 300 nM. With `CN1/C(=C/C=C/C=C/C2=[N+](CCCCCC(=O)NCCCn3cc(CCCCNC(=O)c4cccc(Oc5cc(CN)cc(C(F)(F)F)n5)c4)nn3)c3ccccc3C2(C)C)C(C)(C)c2ccccc21` [Compound 1-4, 1-(6-((3-(4-(4-(3-((4-(Aminomethyl)-6-(trifluoromethyl)pyridin-2-yl)oxy)benzamido)butyl)-1H-1,2,3-triazol-1-yl)propyl)amino)-6-oxohexyl)-3,3-dimethyl-2-((1E,3E,5E)-5-(1,3,3-trimethylindolin-2-ylidene)penta-1,3-dien-1-yl)-3H-indol-1-ium chloride hydrochloride] the IC50 was under 300 nM. Work on `Cc1cc(=O)oc2cc(NC(=O)c3cccc(Oc4cc(CN)cc(C(F)(F)F)n4)c3)ccc12` [Compound 1-5, 3-((4-(Aminomethyl)-6-(trifluoromethyl)pyridin-2-yl)oxy)-N-(4-methyl-2-oxo-2H-chromen-7-yl)benzamide hydrochloride] yielded an IC50 of under 300 nM. `CN(C)c1cccc2c(S(=O)(=O)Nc3cccc(Oc4cc(CN)cc(C(F)(F)F)n4)c3)cccc12` [Compound 1-6, N-(3-((4-(Aminomethyl)-6-(trifluoromethyl)pyridin-2-yl)oxy)phenyl)-5-(dimethylamino)naphthalene-1-sulfonamide hydrochloride] showed an IC50 of 300 to 1000 nM. In the case of `NCc1cc(Oc2cccc(C(=O)NCCOCCOCCOCCNC(=O)CCCC[C@@H]3SC[C@@H]4NC(=O)N[C@@H]43)c2)nc(C(F)(F)F)c1` [Compound 1-19, 3-((4-(Aminomethyl)-6-(trifluoromethyl)pyridin-2-yl)oxy)-N-(13-oxo-17-((3aS,4S,6aR)-2-oxohexahydro-1H-thieno[3,4-d]imidazol-4-yl)-3,6,9-trioxa-12-azaheptadecyl)benzamide hydrochloride], the IC50 is reported as under 300 nM. `NCc1cc(Oc2cccc(C(=O)NCCNC(=O)CCCCCNC(=O)CCCCCNC(=O)CCCC[C@@H]3SC[C@@H]4NC(=O)N[C@@H]43)c2)nc(C(F)(F)F)c1` [Compound 1-20, 3-((4-(Aminomethyl)-6-(trifluoromethyl)pyridin-2-yl)oxy)-N-(2-(6-(6-(5-((3aS,4S,6aR)-2-oxohexahydro-1H-thieno[3,4-d]imidazol-4-yl)pentanamido)hexanamido)hexanamido)ethyl)benzamide hydrochloride] gave an IC50 of under 300 nM. For `CC1(C)C(/C=C/C(=C/C=C2\N(CCCS(=O)(=O)O)c3ccc4c(S(=O)(=O)O)cc(S(=O)(=O)O)cc4c3C2(C)C)c2cccc(CCCCC(=O)NCCCCCCNC(=O)c3cccc(Oc4cc(CN)cc(C(F)(F)F)n4)c3)c2)=[N+](CCCS(=O)(=O)O)c2ccc3c(S(=O)(=O)O)cc(S(=O)(=O)O)cc3c21` [Compound 1-22, 3-(2-((1E,3Z,5Z)-3-(3-(5-((6-(3-((4-(Aminomethyl)-6-(trifluoromethyl)pyridin-2-yl)oxy)benzamido)hexyl)amino)-5-oxopentyl)phenyl)-5-(1,1-dimethyl-6,8-disulfo-3-(3-sulfopropyl)-1H-benzo[e]indol-2(3H)-ylidene)penta-1,3-dien-1-yl)-1,1-dimethyl-6,8-disulfo-1H-benzo[e]indol-3-ium-3-yl)propane-1-sulfonate trifluoroacetate], the IC50 was over 1000 nM.

Target: T1, LOXL2
Test: Erenna-based fluorescence magnetic bead assay for free/unbound LOXL2
Format: binding
Conditions: 34 nM Compound 1-2, 15 hours at room temperature
Method: Following the incubation, 10 μg of streptavidin-coated magnetic microparticles (MPs) are added to each well and incubated for 30 min-2 hours at room temperature with shaking. The MPs are washed once using magnetic separation and 20 μL of a fluorescently conjugated anti-LOXL2 antibody is added to each well (for example, R&D Systems anti-LOXL2 Goat IgG polyclonal antibody conjugated to AlexaFluor 647) and incubated for 30 min-2 hours at room temperature with shaking. The MPs are washed four times with magnetic separation and transferred to a new plate. All liquid is aspirated from the plate and elution buffer added and incubated for 10 minutes at room temperature with shaking. The eluate is transferred to a 384 well assay plate containing neutralization buffer, sealed and read on Erenna®.
In the case of `Cl.NCc1cc(Oc2cccc(C(=O)NCCOCCOCCOCCOCCOCCOCCOCCOCCOCCOCCOCCNC(=O)CCCC[C@@H]3SC[C@@H]4NC(=O)N[C@@H]43)c2)nc(C(F)(F)F)c1` [Compound 1-2, 3-((4-(Aminomethyl)-6-(trifluoromethyl)pyridin-2-yl)oxy)-N-(37-oxo-41-((3aS,4S,6aR)-2-oxohexahydro-1H-thieno[3,4-d]imidazol-4-yl)-3,6,9,12,15,18,21,24,27,30,33-undecaoxa-36-azahentetracontyl)benzamide hydrochloride], the “signal of free/unbound LOXL2 versus LOXL2 concentration” value is reported as “linear increase in signal of free/unbound LOXL2 up to 500 pg/mL”.

Tested on: not listed separately
Test: Compound tissue distribution studies with 18F-PET imaging
Format: in vivo
Conditions: 30-50 μCi intravenously, PET imaged 90-120 minutes, naïve or bleomycin-instilled mice
Method: In these studies, naïve or bleomycin-instilled mice were injected with 30-50 μCi of Compound 1-13 (^18F-labeled) intravenously and were PET imaged for 90-120 minutes following injection of the radiolabel. These animals were then sacrificed at 2.5 hours post-administration of the ^18F-labeled Compound 1-13 and tissues and blood were analyzed by scintillation counting to determine concentration of radioactivity remaining.
To determine specific binding, a subset of mice were administered a blocking dose of Compound 1-13a or vehicle (delivered at 60 mg/kg PO) at a suitable time point prior to the PET-ligand injection, such as 2.5-4 h prior.
With `NCc1cc(Oc2cccc(C(=O)N3C[C@@H](O)[C@H]([18F])C3)c2)nc(C(F)(F)F)c1` [Compound 1-13, (3-((4-(Aminomethyl)-6-(trifluoromethyl)pyridin-2-yl)oxy)phenyl)((3R,4R)-3-^18fluoro-4-hydroxypyrrolidin-1-yl)methanone hydrochloride] the “tissue distribution of the 18F-labeled ligand” value was “Highest initial concentrations of ligand were observed in liver, kidney and lung”.
